From patent US4965250A, “Peptide compounds having a nitrogenous polycyclic structure” (Adir ET CIE, priority 1987, dated 1990)

System: polynuclear leukocytes present in the whole blood of dogs
Assay type: cell-based
Procedure: The compounds according to the invention were tested for their capacity to increase non-specific phagocytosis. This test consists in measuring, after treatment by flow cytometry, the capacity of the polynuclear leukocytes present in the whole blood of dogs to phagocytose latex beads 1.8 μm in diameter, on the one hand in the absence (control) and on the other hand in the presence of a compound of the invention.

C[C@H]1OC(=O)N[C@@H]1C(=O)N[C@@H](CCCCN)C(=O)N1C2CCC(CC2)[C@H]1C(=O)N[C@@H](CCCNC(=N)N)C(=O)O [Example 1, Cyclo(S)Thr-(S)Lys-(S)ABO-(S)Arg-OH]
increase relative to the control of the capacity of the polynuclear leukocytes for non-specific phagocytosis: 19%
